Reference: PMC13576449, “Small-Molecule Activators of PRMT1: Discovery, SAR Analyses, and Proapoptotic Effects in Pancreatic Cancer Cells” (Journal of Medicinal Chemistry, 2026)

Key:
PaTu8988T cells [1] = test: Annexin V/PI flow cytometry apoptosis assay, PaTu8988T; assay type: cell-based, human; settings: Homo sapiens, PaTu 8988t, 48 h; read-out: Q4, viable cells (AV–/PI–)
Protocol: 6 Effect of small-molecule modulators on gemcitabine-induced apoptosis and tumor growth of PDAC cells. […] Subsequently, the luminescence-based caspase3/7 assay was performed. The activity of caspase 3/7 in treated cells was normalized to the activity measured in untreated cells (dark gray bar), which was set to 1 (mean SD, n = 6 for PANC-1 and n = 4 for PaTu8988T; *: p ≤ 0.05, **: p ≤ 0.01, ***: p ≤ 0.001, using the student t-test). […] After 24 h, gemcitabine (GEM, 1 μM) was added (+) or not (−) for another incubation of 48 h. Subsequently, the apoptotic cell fraction was quantified in % by flow cytometry using FITC-labeled Annexin V (AV) and propidium iodide (PI) staining (in B: mean ± SD, n = 6 for PANC-1 and n = 5 for PaTu8988T; **: p ≤ 0.01, ***: p ≤ 0.001, ****: p ≤ 0.0001, using the student t-test). […] Viable cells are AV/PI double-negative (AV–/PI–, lower left quadrant, Q4), early apoptotic cells are AV single-positive (AV+/PI– upper left quadrant, Q1), late apoptotic cells are AV/PI double-positive (AV+/PI+, upper right quadrant, Q2), and necrotic cells are PI single-positive (AV–/PI+, lower right quadrant, Q3). The sum of early and late apoptotic cell numbers (Q2+Q3 in %) is indicated in red. D-G: The workflow of the PDAC xenograft experiments in mice is depicted in D. PANC-1 cells (2 × 10^6 cells/mouse) were subcutaneously (s.c.) injected in the right flank of female athymic nude mice. […] Tumor volumes were measured every second day using a digital caliper. […] At the end of the 2 weeks, mice were sacrificed and tumors were dissected (F).
For quantification of apoptosis by Fluorescence Activated Cell Sorting (FACS), PANC-1 and PaTu8988T cells were seeded in 6-well plates (250 × 10^3 cells/well) and cultured in the absence or presence of compounds. After 24 h, gemcitabine was added or not for another 48 h. After harvesting and washing, unfixed cells (0.5–1 × 10^6) were incubated with FITC-labeled Annexin V and/or PI (BD Pharmingen) according to the manufacturer’s instructions. All samples were analyzed using a BD FACSCalibur flow cytometer (BD Bioscience). Data were acquired using the CellQuestPro program and analyzed with the FlowJo (FlowJo LLC) software.
After 24 hours, gemcitabine (GEM, 1 µM) was added (+) or not
(-) for another incubation of 48 hours. Subsequently, the apoptotic cell fraction was assessed by flow cytometry using FITC-labeled Annexin V (AV) and propidium iodide (PI) staining and quantified in % (mean ± SD, n=3-4; ns: not significant, *: p ≤0.05, **: p ≤0.01, ***: p ≤0.001, ****: p ≤0.0001, using the student t-test).

PANC-1 cells = test: CaspaseGlo 3/7 apoptosis assay, PANC-1; assay type: cell-based, human; settings: TR-07 10 μM or gemcitabine 10 and 25 nM, 72 h
Protocol: (§1) 6 Effect of small-molecule modulators on gemcitabine-induced apoptosis and tumor growth of PDAC cells. […] After 2 h, gemcitabine (GEM) was added at increasing concentrations (10 and 25 nM) or not (−) for another incubation of 72 h. Subsequently, the luminescence-based caspase3/7 assay was performed. The activity of caspase 3/7 in treated cells was normalized to the activity measured in untreated cells (dark gray bar), which was set to 1 (mean SD, n = 6 for PANC-1 and n = 4 for PaTu8988T; *: p ≤ 0.05, **: p ≤ 0.01, ***: p ≤ 0.001, using the student t-test). […] After 24 h, gemcitabine (GEM, 1 μM) was added (+) or not (−) for another incubation of 48 h. Subsequently, the apoptotic cell fraction was quantified in % by flow cytometry using FITC-labeled Annexin V (AV) and propidium iodide (PI) staining (in B: mean ± SD, n = 6 for PANC-1 and n = 5 for PaTu8988T; **: p ≤ 0.01, ***: p ≤ 0.001, ****: p ≤ 0.0001, using the student t-test). […] Viable cells are AV/PI double-negative (AV–/PI–, lower left quadrant, Q4), early apoptotic cells are AV single-positive (AV+/PI– upper left quadrant, Q1), late apoptotic cells are AV/PI double-positive (AV+/PI+, upper right quadrant, Q2), and necrotic cells are PI single-positive (AV–/PI+, lower right quadrant, Q3). The sum of early and late apoptotic cell numbers ([…] in %) is indicated in red. D-G: The workflow of the PDAC xenograft experiments in mice is depicted in D. PANC-1 cells (2 × 10^6 cells/mouse) were subcutaneously (s.c.) injected in the right flank of female athymic nude mice. Small tumor nodules appeared 6 days post-engraftment. […] Tumor volumes were measured every second day using a digital caliper. […] At the end of the 2 weeks, mice were sacrificed and tumors were dissected (F).
(§2) For quantification of apoptosis using the CaspaseGlo 3/7 assay (Promega), PANC-1 and PaTu8988T cells were seeded in triplicates in white 96-well plate (5 × 10^3 cells/well) and cultured in the absence or presence of compounds. After 2 h, as soon as the cells had settled, gemcitabine was added or not, and cells were incubated for another 72 h. Subsequently, the caspase3/7 activity was measured using the luminescence-based CaspaseGLO-3/7 assay (Promega). To this end, the CaspaseGlo reagent was subsequently added to the cells at a 1:1 ratio and incubated at room temperature and under agitation for 30 min protected from light. The luminescence measurements were carried out using a microplate reader (Mithras LB 940, Berthold).

PANC-1 xenografts = test: PDAC xenograft mouse model, tumor growth; assay type: in vivo; settings: female athymic nude mice, intraperitoneal, 2 weeks; 150 mg/kg TR-07 daily, 10 mg/kg gemcitabine every second day; n = 5
PaTu8988T cells [2] = test: CaspaseGlo 3/7 apoptosis assay, PaTu8988T; assay type: cell-based, human; settings: TR-07 10 μM or gemcitabine 10 and 25 nM, 72 h
Protocol: as §1, §2

SMILES: Nc1ccn([C@@H]2O[C@H](CO)[C@@H](O)C2(F)F)c(=O)n1 [gemcitabine, reference compound]
- viability at 10 µM (PaTu8988T cells [1]): 78.6%
- apoptosis, caspase 3/7 activity, single agent (PANC-1 cells): underwent apoptosis in a gemcitabine concentration-dependent manner
- tumor growth of PANC-1 xenografts (PANC-1 xenografts): significantly reduced the tumor growth compared to the control mice
- apoptosis, caspase 3/7 activity, single agent (PaTu8988T cells [2]): underwent apoptosis in a gemcitabine concentration-dependent manner
